Experimental data published in paper PMC8617944, “Preclinical Pharmacokinetics and Acute Toxicity in Rats of 5-{[(2E)-3-Bromo-3-carboxyprop-2-enoyl]amino}-2-hydroxybenzoic Acid: A Novel 5-Aminosalicylic Acid Derivative with Potent Anti-Inflammatory Activity” (Molecules, 2021).

Tests used:
[1] = Stability of C1 in rat plasma (RP-HPLC); assay type: in vitro ADME; settings: for Difference at 12 h (%) / Difference at 24 h (%) / Difference at 48 h (%): rat plasma
Experimental: C1 was quantified in a liquid chromatograph Agilent 1260 Infinity Series (Agilent Technologies, Palo Alto, CA, USA) equipped with a quaternary pump delivery system (G1311B), robotic autosampler (G1316A), column thermostat (G1316A), and a multi-wavelength UV detector (G1315C). The results were analyzed with OpenLab CDS EZChrom. Separation was performed on a Zorbax SB-Phenyl column (5 µm, 4.6 × 150 mm, Agilent Technologies, Palo Alto, CA, USA) and UV detection was carried out at 305 nm. The column temperature was maintained at 25 °C, and the injection volume was 10 μL. The mobile phase consisted of a mixture of (A) acetonitrile, (B) methanol, and (C) water at a ratio of 50% A, 10% B, and 40% C, at a flow rate of 1.0 mL/min. The total analysis time for each sample was 5.0 min when using an isocratic elution. It was not necessary to equilibrate between each injection.
In addition, the potential interference of heparin, ketamine, and xylazine was investigated. Method specificity was assessed by the values of peak identity and purity of C1. A peak purity angle that is less than the peak threshold angle is an indication of spectral homogeneity or purity of C1. Stability of C1 in plasma was evaluated in triplicate using the quality control samples at four concentrations. Samples were stored at 25 °C for 12, 24, and 48 h (short-term stability), and three freeze-thaw cycles at −20 to +25 °C for 12, 24, and 48 h. […] The concentration of C1 after each storage period was compared to the initial concentration, which was determined for freshly prepared samples [57, 59].

[2] = Plasma protein binding assay (ultrafiltration, RP-HPLC); assay type: in vitro ADME, Wistar rats; settings: rat plasma
Experimental: Different quantities of C1 stock solution at 10 mg/mL were spiked into 600 µL of freshly obtained blank rat plasma to give a final concentration of 1, 5, 10, and 20 µg/mL. The resulting samples were incubated at 37 °C for 4 h. After incubation, an aliquot of 100 µL was removed to determine the total concentration, and another aliquot of 500 µL was transferred to a 10 kD cut-off ultrafiltration device (Millipore Corporation, Burlington, MA, USA). Subsequently, samples were centrifuged at 2000× g and 37 °C for 2 h. The free drug concentration of C1 was measured by evaluating 100 µL of ultrafiltrate with RP-HPLC, interpolating the main areas of the samples into a standard curve constructed with known amounts of C1. The percentage of protein binding was calculated with the following formula (1). Protein binding ratio (%) = […](1)

[3] = Blood/plasma partitioning (BP ratio); assay type: in vitro ADME, rats; settings: rat whole blood, 37 °C, 4 h
Experimental: Appropriate amounts of C1 stock solution at 10 mg/mL were spiked into whole blood to obtain samples (prepared in triplicate) at a final concentration of 1, 5, and 10 and 20 μg/mL (in a final volume of 600 μL), to be incubated at 37 °C for 4 h. Plasma was harvested from blood samples by centrifuging at 8000 rpm for 15 min, and then the concentration of C1 was established using the RP-HPLC method and interpolating the response area into a standard curve prepared with C1 and blank plasma. The BP ratio was calculated by dividing 5 and 10 µg/mL, respectively, by the concentration found in plasma separated from blood samples. The concentration of C1 in blood cells is assumed to be equal to its unbound concentration in plasma.

[4] = Stability of stock solutions; assay type: physicochemical; settings: 1000 μg/mL in acetonitrile-methanol (50:50, v/v), 2–4 °C
Experimental: Six stock solutions at 1000 μg/mL of C1 were prepared by dissolving 10 mg in a mixture of acetonitrile-methanol (50:50, v/v), adjusting the volume in a volumetric flask of 10 mL and storing the final solution at 2–4 °C. […] Calibration standards were prepared daily from the stock solution at concentrations of 0.1, 0.5, 1, 5, 10, 50, and 100 μg/mL, and calibration curves were constructed in triplicate by plotting known concentrations of the standard versus the detector response area (File S4).

[5] = refrigeration (4 °C), 0.1 µg/mL
[6] = refrigeration (4 °C), 0.5 µg/mL
[7] = refrigeration (4 °C), 100 µg/mL
[8] = room temperature (25 °C), 0.1 µg/mL, difference to nominal concentration
[9] = room temperature (25 °C), 0.5 µg/mL
[10] = room temperature (25 °C), 10 µg/mL
[11] = room temperature (25 °C), 100 µg/mL
[12] = three freeze–thaw cycles (−20 to +25 °C), 0.1 µg/mL
[13] = three freeze–thaw cycles (−20 to +25 °C), 0.5 µg/mL
[14] = three freeze–thaw cycles (−20 to +25 °C), 10 µg/mL
[15] = three freeze–thaw cycles (−20 to +25 °C), 100 µg/mL

SMILES: O=C(/C=C(/Br)C(=O)O)Nc1ccc(O)c(C(=O)O)c1 [Compound C1, 5-{[(2E)-3-bromo-3-carboxyprop-2-enoyl]amino}-2-hydroxybenzoic acid]
- stability in rat plasma ([1]; 4 °C): up to 72 h at 4 °C
- stability in rat plasma ([1]; 25 °C): stable in rat plasma stored up to 48 h at 25 °C
- Difference at 12 h (%) [1, 5]: 5.1%
- Difference at 24 h (%) [1, 5]: 14.0%
- Difference at 48 h (%) [1, 5]: 4.3%
- Difference at 12 h (%) [1, 6]: 4.0%
- Difference at 24 h (%) [1, 6]: 3.6%
- Difference at 48 h (%) [1, 6]: 5.3%
- Difference at 12 h (%) ([1]; refrigeration (4 °C), 10 µg/mL): 10.1%
- Difference at 24 h (%) ([1]; refrigeration (4 °C), 10 µg/mL): 13.1%
- Difference at 48 h (%) ([1]; refrigeration (4 °C), 10 µg/mL): 9.3%
- Difference at 12 h (%) [1, 7]: 1.2%
- Difference at 24 h (%) [1, 7]: 0.2%
- Difference at 48 h (%) [1, 7]: 5.2%
- Difference at 12 h (%) [1, 8]: 10.7%
- Difference at 24 h (%) [1, 8]: 3.2%
- Difference at 48 h (%) [1, 8]: 3.8%
- Difference at 12 h (%) [1, 9]: 3.2%
- Difference at 24 h (%) [1, 9]: 7.8%
- Difference at 48 h (%) [1, 9]: 4.1%
- Difference at 12 h (%) [1, 10]: 9.5%
- Difference at 24 h (%) [1, 10]: 6.5%
- Difference at 48 h (%) [1, 10]: 3.7%
- Difference at 12 h (%) [1, 11]: 0.5%
- Difference at 24 h (%) [1, 11]: 6.5%
- Difference at 48 h (%) [1, 11]: 5.4%
- Difference at 12 h (%) [1, 12]: 5.1%
- Difference at 24 h (%) [1, 12]: 1.76%
- Difference at 48 h (%) [1, 12]: 3.4%
- Difference at 12 h (%) [1, 13]: 0.1%
- Difference at 24 h (%) [1, 13]: 0.3%
- Difference at 48 h (%) [1, 13]: 1.0%
- Difference at 12 h (%) [1, 14]: 0.7%
- Difference at 24 h (%) [1, 14]: 1.2%
- Difference at 48 h (%) [1, 14]: 3.2%
- Difference at 12 h (%) [1, 15]: 0.1%
- Difference at 24 h (%) [1, 15]: 0.6%
- Difference at 48 h (%) [1, 15]: 2.0%
- stability in rat plasma ([1]; three freeze–thaw cycles): stable before the three freeze–thaw cycles
- fraction unbound at 4 h, 1 µg/mL ([2]; Wistar, 1 µg/mL, read-out: Percentage of Unbound Fraction ± SD (%)): 0.963 ± 0.014
- fraction unbound at 4 h, 5 µg/mL ([2]; Wistar, 5 µg/mL, read-out: Percentage of Unbound Fraction ± SD (%)): 0.942 ± 0.024
- fraction unbound at 4 h, 10 µg/mL ([2]; Wistar, 10 µg/mL, read-out: Percentage of Unbound Fraction ± SD (%)): 0.934 ± 0.015
- fraction unbound at 4 h, 20 µg/mL ([2]; Wistar, 20 µg/mL, read-out: Percentage of Unbound Fraction ± SD (%)): 0.948 ± 0.023
- fraction unbound at 4 h ([2]; Wistar, 1 to 20 μg/mL): 0.934 to 0.963
- Percentage of Bound Fraction ± SD (%) ([2]; 1 µg/mL): 3.7 ± 1.1%
- Percentage of Bound Fraction ± SD (%) ([2]; 5 µg/mL): 5.8 ± 2.4%
- Percentage of Bound Fraction ± SD (%) ([2]; 10 µg/mL): 6.6 ± 1.5%
- Percentage of Bound Fraction ± SD (%) ([2]; 20 µg/mL): 5.2 ± 2.3%
- BP Ratio ± SD ([3]; 5 µg/mL): 0.54 ± 0.02
- BP Ratio ± SD ([3]; 10 µg/mL): 0.40 ± 0.01
- stability of stock solutions [4]: stable for three months
